According to US20050214217A1 (priority 2004, published 2005):
Entries after “also recorded” stand apart in the source; their conditions may differ.

Experiments:
normal human T-cells [1] = experiment: T-cell adhesion assay to fibronectin and laminin; type: cell-based; conditions: for Blocking of the glutamate effect on integrin-mediated T-cell adhesion to laminin and fibronectin: Glutamate 10 nM
Protocol: Adhesion of untreated cells (BG) serves as a control. The results are expressed as the OD405 of the lysed, fibronectin- or laminin-adherent cells remaining after incubation and repeated washings.
Adhesion of T-cells to fibronectin and laminin was assayed as follows: normal human T-cells, purified from a fresh blood sample, were suspended (1×10^6 cells/ml) in rest medium (RPMI-1640, supplemented with 10% fetal calf serum (Sigma Chemical Co., St. Louis, Mo.), 1% antibiotics, 1% glutamine (Biological Industries, Beit Haemek, Israel) and 0.4% fungizone (GibcoBRL, Life Technologies Ltd., Paisley, Scotland)). […] Following incubation the cells were washed and resuspended in adhesion medium (RPMI-1640 supplemented with 0.1% bovine serum albumin (BSA, Sigma)). The cells were then seeded in 96 well flat-bottomed microtiter plates (Falcon, Becton Dickinson, Heidelberg, Germany, 1×10^5 cells/100 μl/well pre-coated with fibronectin or laminin (ICN Biomedicals Inc., Aurora, Ohio, […], 18 hours, 4° C.). Cells treated with phorbol 12-myristate 13-acetate (PMA, Sigma, 10 ng/ml) served as a positive control. The adhesion plates were incubated (37° C., 30 minutes, 7.5% CO2 humidified incubator), and then washed several times with PBS to remove non-adherent T-cells. The adhered cells were lysed by adding 60 μl/well of lysis-substrate solution (0.5% Triton X-100 in water mixed with an equal volume of 7.5 mM p-nitrophenol-N-acetyl-β-D-glucosaminide (Sigma, St. Louis, Mo.) in 0.1M citrate buffer pH=5.0). The plates were then incubated for 18 h in a CO2-devoid 37° C. incubator, and the reaction was stopped by the addition of […] of 50 mM glycine (Sigma, St Louis, Mo.) pH=10.4, containing 5 mM EDTA. The optical density (OD) was measured at 405 nm in a standard ELISA reader. The OD was converted to actual number of cells using a standard curve performed in each experiment.

[2] = tested on: Bomapin mRNA in peripheral human T-cells; experiment: Bomapin expression by quantitative RT-PCR in peripheral human T-cells; type: cell-based
Protocol: PCR was performed for 30 cycles. The ethidium bromide bands corresponding to the amplified bomapin transcripts were quantified by AlphaEase program (Alpha Innotech, San Leandro, Calif., USA). Each PCR tube contained four oligonucleotides primers, two for the Bomapin and two for the internal control (S-14).
Neurotransmitters, agonists and antagonists were added and the cells were incubated at 37 C°, 5% CO2 for up to 72 hours, as indicated for individual experiments. The incubated T-cells were then collected and used for further experimentation.
Total RNA was extracted by using Trizol RNA isolation reagent (Molecular Research Center, Cincinnati, Ohio) based on the acid guanidinium thiocyanate-phenol-chloroform extraction method, according to manufacturer recommendations. RT-PCR was used to amplify the levels of endogenous Bomapin mRNA that may be present in the peripheral human T-cells and in the Jurkat cells (a human mature leukemic cell line that phenotypically resembles resting human T lymphocytes). The expression of the ribosomal protein S-14, derived from the same tissue preparations, served as an internal control. Each reaction contained four oligonucleotides primers, two for Bomapin and two for the internal control S-14. PCR conditions were: cDNA equivalent to 50 ng RNA was amplified for 30 cycles, the annealing temperature was 60° C. and the final MgCl2 concentration was 2.5 mM. […]

normal human T-cells [3] = experiment: In-vitro chemotactic migration assay towards SDF-1; type: cell-based; conditions: pre-treatment 66 hours, Glutamate 10^−8, fibronectin-coated filters
Protocol: FIG. 8 illustrates the Glutamate-induced migration of normal human T-cells towards the chemokine SDF-1. […] The cells in each experimental group were counted by FACSORT. The results are expressed as the number of fluorescently-labeled migrating Glutamate-treated T-cells vs. untreated controls (Untreated).
The cells were then washed, resuspended in adhesion medium, and added to the upper chambers (2×10^5 cells per 100 μl well) of a 24-well chemotaxis microchamber plate (Corning Inc., Corning, N.Y.). The two compartments of the microchambers were separated by polycarbonate filters ([…]) pre-coated with fibronectin or laminin ([…], about 1.5 hour, 37° C.). The lower chambers contained adhesion medium, which was supplemented, where indicated, with 100-250 ng/ml of the chemokine stromal cell-derived factor 1a (SDF-1a, Peprotech Inc., Rocky Hill, N.J.). The chemotaxis microchamber plate was incubated (3 hours, 37° C., 7.5% CO2 humidified incubator), the filter-containing upper chambers were gently removed and the contents of the individual lower chambers (containing the migrated cells) thoroughly mixed by pipetting and transferred into clean tubes. The number of cells in each tube was determined by FACSORT. Counting time for all the experimental groups was two minutes. […]

[4] = tested on: GluR3 mRNA in normal human T-cells; experiment: GluR3 mRNA expression by RT-PCR; type: cell-based; conditions: Glutamate 10 mM, 24 hours
Source text: FIGS. 10A and 10B are ethidium bromide stained gels of RT-PCR amplified cDNA from two similar experiments.
Total RNA was extracted from cultured T-cells using Trizol RNA isolation reagent (Molecular Research Center, Cincinnati, Ohio) based on the acid guanidinium thiocyanate-phenol-chloroform extraction method, according to manufacturer recommendations. […] The expression of the ribosomal protein S-14, derived from the same cell preparations, served as an internal control. Each reaction contained four oligonucleotides primers, two for GluR3 and two for the internal control S-14. PCR conditions were: cDNA equivalent to 50 ng RNA was amplified for 30 cycles, the annealing temperature was 60° C. and the final MgCl2 concentration was 2.5 mM. The Taq DNA polymerase used in this study was the BIO-X-ACT DNA polymerase (Bioline UK Ltd., London. UK). The PCR products were separated electrophoretically on a 1.5% agarose gel containing ethidium bromide, and visualized under UV light.
GluR3—5′[…] 3′ (SEQ. ID NO: 8) and 5′ […] 3′ (SEQ ID NO: 9) corresponding to nucleotides 699-718 (sense) and 1312-1331 (antisense) respectively. The predicted size of the band is […].

[5] = tested on: cloned human Th1 cells (clone 305); experiment: IFN-γ secretion by ELISA, activated (alloprimed) cloned Th1 cells; type: cell-based; conditions: 20 hours, 10^−8M Glutamate plus mismatched allopriming B cells, versus antigen stimulation alone
Protocol: (§1) The results are expressed as pg/ml IFN-γ.
(§2) Human T-cell clones were prepared essentially as described by Besser M and Wank J (Besser M and Wank J, J Immunol 1999; 162:6303-306): Human PBMC were purified from whole blood by Ficoll gradient (Amersham Pharmacia Biotech, Freiburg, Germany). CD4^+ Th (T-helper) cells were isolated by using CD4 mAbs coupled to magnetic beads (Dynal, Hamburg, Germany). T cells were cultured at 1-2×10^6 cells/ml either in the presence of 1% PHA (Difco, Hamburg, Germany), 20 μg of anti-CD3 (OKT-3, Cilag, Sulzbach, Germany)-precoated plates in combination with IL-2 (20 U/ml) or IL-4 (100 U/ml), or with 100 ng/ml neurotrophins (Prepro, London, England), 20 U/ml IL-2 (Chiron, Ratingen, Germany), 100 U/ml IL-4 (Genzyme, Ruesselsheim, Germany) or 500 U/ml IFN-γ (Thomae, Bicherach an der Riss, Germany) alone. RPMI 1640 culture medium (Life Technologies, Eggenstein, Germany) was supplemented with 10% FCS (Life Technologies). Alloprimed PBMC were seeded at 0.4 cell/well on allogeneic specific feeder layer. […] Constitutive expression in immune cell bulk cultures was assessed immediately after cell separation, in cloned T lymphocytes after 3 days without further addition of IL-2.
(§3) Cytokine levels were measured in supernatants from Glutamate stimulated human T-cell cultured as described hereinabove. […]

[6] = tested on: human T-cell lukemia (Jurkat) cells; experiment: Bomapin expression in Jurkat cells; type: cell-based
Source text: Total RNA was extracted by using Trizol RNA isolation reagent (Molecular Research Center, Cincinnati, Ohio) based on the acid guanidinium thiocyanate-phenol-chloroform extraction method, according to manufacturer recommendations. RT-PCR was used to amplify the levels of endogenous Bomapin mRNA that may be present in the peripheral human T-cells and in the Jurkat cells (a human mature leukemic cell line that phenotypically resembles resting human T lymphocytes). The expression of the ribosomal protein S-14, derived from the same tissue preparations, served as an internal control. Each reaction contained four oligonucleotides primers, two for Bomapin and two for the internal control S-14. PCR conditions were: cDNA equivalent to 50 ng RNA was amplified for 30 cycles, the annealing temperature was 60° C. and the final MgCl2 concentration was 2.5 mM. The Taq DNA polymerase used in this study was the BIO-X-ACT DNA polymerase (Bioline UK Ltd., London. UK). The PCR products were separated electrophoretically on a 1.5% agarose gel containing ethidium bromide, and visualized under UV light.

[7] = tested on: resting human peripheral T-cells; experiment: Gene expression analysis with Atlas human cDNA expression array; type: cell-based; conditions: Glutamate 10 nM, 72 hours, autoradiography and densitometry
Source text: FIGS. 1A-1D are tables illustrating the Glutamate-induced regulation of specific gene expression in the human T-cell, through analysis of gene expression using the atlas human cDNA expression array. […] The cDNA was hybridized to the atlas membranes according to the manual, and expression was visualized by autoradiography. […] Note the enhanced expression of T-cell genes such as Rapamycin-selective-25 KD Immunophilin (FKBP-25), Heat shock protein 40 (Hsp 40), Cathepsin E presursor, Carbonic anhydrase-related protein (carp) (ca-viii), peptidyl-glycine alpha-amidating monooxygenase presursor (pam), and axonemal dynein heavy chain (fragment) as well as of genes whose expression has been previously undetected in T cells such as Stimulator of Fe Transport (SFT), oviductal glycoprotein, Clathrin light chain, Protein Inhibitor of Activated STAT (PIAS) and Cartilage Intermediate Layer Protein (CILP) (FIG. 1A).
Hybridizations to the Atlas Human cDNA Expression Arrays membranes (Catalog No. 1.2 KIII (7850-1) and III (7855-1), Clontech Laboratories) were performed by Clonetech Laboratories, as described in the user manual. Analysis of the expression pattern of up and down regulated genes, as compared to that of untreated T-cells, was performed by Clontech, as described in their manual. […]

[8] = tested on: cloned resting human Th2 cells (clone 401); experiment: Cytokine secretion by ELISA, resting cloned Th2 cells; type: cell-based; conditions: 10^−8 M Glutamate, no antigen stimulation, versus untreated
Protocol: The results are expressed as pg/ml IL-4. Note the clear induction of IL-4 secretion in the Glutamate-treated cells, absent in the non-activated cells.
as §2, with “Technologies).” for “Technologies). Alloprimed PBMC were seeded at 0.4 cell/well on allogeneic specific feeder layer.”
as §3

[9] = tested on: human peripheral lymphocytes; conditions: cited from earlier work
[10] = tested on: cloned resting human Th1 cells (clone 305); experiment: Cytokine secretion by ELISA, resting cloned Th1 cells; type: cell-based; conditions: 10^−8 M Glutamate, versus untreated
Protocol: The results are expressed as pg/ml IL-10.
The results are expressed as pg/ml IL-4.
as §2, §3

[11] = tested on: cloned human Th0 cells (clone 234); experiment: IFN-γ secretion by ELISA, activated (alloprimed) cloned Th0 cells; type: cell-based; conditions: 20 hours, 10^−8M Glutamate plus mismatched allopriming B cells, versus antigen stimulation alone
Protocol: as §1, §2, §3

[12] = CNQX added to Glutamate during incubation
[13] = PHA or mAb activated human peripheral lymphocytes
[14] = 10^−8M Glutamate, 30 minutes, versus untreated (BG)

Structure (SMILES): N#Cc1cc2[nH]c(=O)c(=O)[nH]c2cc1[N+](=O)[O-] [CNQX]
- Effect on Glutamate-mediated fibronectin binding (normal human T-cells [1]; [12]): strongly inhibits
- Effect on Glutamate-mediated laminin binding (normal human T-cells [1]; [12]): strongly inhibits
- Blocking of the glutamate effect on integrin-mediated T-cell adhesion to laminin and fibronectin (normal human T-cells [1]): blocked specifically
- Glutamate-induced Bomapin transcripts in the presence of antagonist ([2]; T-cells treated with Glutamate in the presence of CNQX): absence of detectable Bomapin transcripts

Structure (SMILES): N[C@@H](CCC(=O)O)C(=O)O [Glutamate]
- Migration towards the chemoattractant SDF-1 (number of migrating cells) (normal human T-cells [3]): significantly augments
- RT-PCR-amplified GluR3 cDNA transcripts [4]: absence of RT-PCR-amplified GluR3 Glutamate receptor cDNA transcripts
- IFN-γ secretion [5]: additional significant IFN-γ secretion
- Bomapin expression [6]: induces expression
- Differential pattern of gene expression versus untreated cells [7]: induced the over expression of mRNA encoding for several genes; also recorded: down-regulated the expression of others
- IL-4 secretion [8]: strong release of IL-4
- Ca++ influx and proliferation in activated lymphocytes [9, 13]: induction of Ca^++ influx and proliferation
- Effect on unstimulated, resting lymphocytes ([9]; high levels (1 mM) of Glutamate): no effect
- IL-4 secretion ("forbidden" cytokine) [10]: significant induction
- IL-10 secretion ("forbidden" cytokine) [10]: significant induction
- IFN-γ secretion [11]: additional significant IFN-γ secretion
- T-cell adhesion to fibronectin (normal human T-cells [1]; [14]): significant increase
- T-cell adhesion to laminin (normal human T-cells [1]; [14]): significant increase
- Bomapin mRNA level versus untreated cells ([2]; Glutamate 10 nM, 72 hours, 30 PCR cycles, S-14 internal control): about 6 fold

Structure (SMILES): O=C(O)c1cc(=O)c2ccccc2[nH]1 [KYNA, reference compound]
- Effect on Glutamate potentiation in activated lymphocytes [9, 13]: inhibition of Glutamate potentiation

Structure (SMILES): NS(=O)(=O)c1cccc2c1c([N+](=O)[O-])cc1nc(O)c(O)nc12 [NBQX, reference compound]
- Effect on Glutamate potentiation in activated lymphocytes [9, 13]: inhibition of Glutamate potentiation
- Blocking of the glutamate effect on integrin-mediated T-cell adhesion to laminin and fibronectin (normal human T-cells [1]): blocked specifically
